Structures can show the parent of a compound that is named as a salt.
Columns and labels:
Assay in all cases: Hydrolysis on Columbia agar with ferric ammonium citrate
Assay type in all cases: cell-based
enterococci = enterococci (‘faecal streptococci’)
Protocol: (§1) The chromogenic β-D-ribofuranoside substrate was added to Columbia agar at a substrate concentration of 300 mg/l. Ferric ammonium citrate was included at 500 mg/l. All ingredients were autoclaved at 116° C. for 20 minutes to ensure sterilisation. Agar plates were then prepared in 90 mm petri dishes. The substrate caused a yellow colouration of the agar.
(§2) For each strain tested, a bacterial suspension was prepared in sterile deionised water at an inoculum of approximately 1.5×10^8 colony forming units per ml. This was achieved using a densitometer. 1 μl of each bacterial suspension was then inoculated onto each plate using a multipoint inoculator. Strains were inoculated in parallel onto Columbia agar containing ferric ammonium citrate with no substrate (negative control).
(§3) After 18 hours incubation, strains were examined visually for the presence of colour. Any strains producing a black colouration on substrate containing media but not on the negative control plates were deemed to be hydrolysing the substrate.

Listeria ivanovii = Listeria ivanovii PHLS wild
Protocol: as §1, §2, §3

[1] = tested on: Streptococcus constellatus; details: Streptococcus constellatus NCTC 11325
Protocol: as §1, §2, §3

[2] = tested on: Providencia alcalifaciens
Protocol: as §1, §2, §3

Streptococci = tested on: Streptococci
Protocol: as §1, §2, §3

Enterococcus raffinosis = Enterococcus raffinosis NCTC 13192
Protocol: as §1, §2, §3

Streptococcus mitis = Streptococcus mitis NCTC 12261
Protocol: as §1, §2, §3

A. baumanii = A. baumanii ATCC 19606
Protocol: as §1, §2, §3

P. vulgaris = tested on: P. vulgaris
Protocol: as §1, §2, §3

[3] = tested on: Haemolytic streptococcus C
Protocol: as §1, §2, §3

[4] = tested on: Streptococcus vestibularis; details: Streptococcus vestibularis NCTC 12166
Protocol: as §1, §2, §3

Enterococcus faecalis = tested on: Enterococcus faecalis
Protocol: as §1, §2, §3

P. penneri = P. penneri PPE 1
Protocol: as §1, §2, §3

Vibrio furnissii = Vibrio furnissii NCTC 11218
Protocol: as §1, §2, §3

Streptococcus crista = Streptococcus crista NCTC 12479
Protocol: as §1, §2, §3

Listeria seerigeri = Listeria seerigeri PHLS wild
Protocol: as §1, §2, §3

[5] = tested on: Arcanobacterium haemolyticus
Protocol: as §1, §2, §3

Listeria innocua = Listeria innocua PHLS wild
Protocol: as §1, §2, §3

[6] = tested on: Haemolytic streptococcus B
Protocol: as §1, §2, §3

Streptococcus milleri = Streptococcus milleri wild
Protocol: as §1, §2, §3

[7] = tested on: Haemolytic streptococcus A
Protocol: as §1, §2, §3

Streptococcus gordonii = Streptococcus gordonii NCTC 7865
Protocol: as §1, §2, §3

Y. enterocolitica = tested on: Y. enterocolitica
Protocol: as §1, §2, §3

Serratia marcescens = tested on: Serratia marcescens; design: key to the marks not given beside the values; details: Serratia marcescens NCTC 10211
Protocol: as §1, §2, §3

E. cloacae = tested on: E. cloacae; design: key to the marks not given beside the values
Protocol: as §1, §2, §3

Salmonella hadar = tested on: Salmonella hadar; design: key to the marks not given beside the values; details: Salmonella hadar SAX 57
Protocol: as §1, §2, §3

Vibrio fluvialis = tested on: Vibrio fluvialis; design: key to the marks not given beside the values; details: Vibrio fluvialis NCTC 11327
Protocol: as §1, §2, §3

Shigella boydii = tested on: Shigella boydii; design: key to the marks not given beside the values
Protocol: as §1, §2, §3

Salmonella typhi = tested on: Salmonella typhi; design: key to the marks not given beside the values; details: Salmonella typhi NCTC 8385
Protocol: as §1, §2, §3

Salmonella orthmarchen = tested on: Salmonella orthmarchen; design: key to the marks not given beside the values; details: Salmonella orthmarchen SAX 59
Protocol: as §1, §2, §3

Aeromonas caviae = tested on: Aeromonas caviae; design: key to the marks not given beside the values; details: Aeromonas caviae NCTC 10852
Protocol: as §1, §2, §3

Salmonella motevideo = tested on: Salmonella motevideo; design: key to the marks not given beside the values; details: Salmonella motevideo SAX 55
Protocol: as §1, §2, §3

Shigella dysenteriae = tested on: Shigella dysenteriae; design: key to the marks not given beside the values
Protocol: as §1, §2, §3

Vibrio metschnikovii = tested on: Vibrio metschnikovii; design: key to the marks not given beside the values; details: Vibrio metschnikovii NCTC 8443
Protocol: as §1, §2, §3

## O=c1cc(-c2ccc(OC3OC(CO)C(O)C3O)c(O)c2)oc2ccccc12 [DHF-riboside, 3′,4′-Dihydroxyflavone-4′-β-D-ribofuranoside sodium salt]
enterococci
  Activity with the substrate: variable
Listeria ivanovii
  β-Ribofuranoside (hydrolysis): +
[1]
  β-Ribofuranoside (hydrolysis): −
[2]; Providencia alcalifaciens PAL 1
  β-Riboside (hydrolysis): +
[2]; Providencia alcalifaciens PAL 2
  β-Riboside (hydrolysis): −
Streptococci
  Activity with the substrate: almost universally negative
Enterococcus raffinosis
  β-Ribofuranoside (hydrolysis): +
Streptococcus mitis
  β-Ribofuranoside (hydrolysis): −
A. baumanii
  β-Riboside (hydrolysis): −
P. vulgaris; P. vulgaris PVU 2
  β-Riboside (hydrolysis): −
P. vulgaris; P. vulgaris PVU 4
  β-Riboside (hydrolysis): −
P. vulgaris; P. vulgaris PVU 5
  β-Riboside (hydrolysis): −
[3]; Reference No. 1
  β-Ribofuranoside (hydrolysis): −
[3]; Reference No. 67736
  β-Ribofuranoside (hydrolysis): −
[3]; Reference No. 68350
  β-Ribofuranoside (hydrolysis): −
[4]
  β-Ribofuranoside (hydrolysis): −
Enterococcus faecalis; Reference No. 1
  β-Ribofuranoside (hydrolysis): −
Enterococcus faecalis; Reference No. 2
  β-Ribofuranoside (hydrolysis): +
Enterococcus faecalis; Reference No. 3
  β-Ribofuranoside (hydrolysis): +
Enterococcus faecalis; Reference No. 4
  β-Ribofuranoside (hydrolysis): +
Enterococcus faecalis; Reference No. 5
  β-Ribofuranoside (hydrolysis): +
Enterococcus faecalis; Reference No. 6
  β-Ribofuranoside (hydrolysis): +
Enterococcus faecalis; Reference No. 7
  β-Ribofuranoside (hydrolysis): −
P. penneri
  β-Riboside (hydrolysis): −
Vibrio furnissii
  β-Riboside (hydrolysis): −
Streptococcus crista
  β-Ribofuranoside (hydrolysis): −
Listeria seerigeri
  β-Ribofuranoside (hydrolysis): −
[5]; Arcanobacterium haemolyticum
  Activity with the substrate: active
[5]; Arcanobacterium haemolyticus NCTC 52
  β-Ribofuranoside (hydrolysis): +
Listeria innocua
  β-Ribofuranoside (hydrolysis): −
[6]; Reference No. 1
  β-Ribofuranoside (hydrolysis): −
[6]; Reference No. 2
  β-Ribofuranoside (hydrolysis): −
[6]; Reference No. 3
  β-Ribofuranoside (hydrolysis): −
Streptococcus milleri
  β-Ribofuranoside (hydrolysis): −
[7]; Reference No. 1
  β-Ribofuranoside (hydrolysis): −
[7]; Reference No. 2
  β-Ribofuranoside (hydrolysis): −
[7]; Reference No. 3
  β-Ribofuranoside (hydrolysis): −
Streptococcus gordonii
  β-Ribofuranoside (hydrolysis): −
Y. enterocolitica; Y. enterocolitica NCTC 10460
  β-Riboside (hydrolysis): −
Y. enterocolitica; Y. enterocolitica NCTC 11176
  β-Riboside (hydrolysis): −
Y. enterocolitica; Y. enterocolitica NCTC 11177
  β-Riboside (hydrolysis): −
Y. enterocolitica; Y. enterocolitica NCTC 11600
  β-Riboside (hydrolysis): −
Serratia marcescens
  β-Riboside (hydrolysis): ++
E. cloacae; E. cloacae ECL 1
  β-Riboside (hydrolysis): ++
E. cloacae; E. cloacae ECL 2
  β-Riboside (hydrolysis): ++
E. cloacae; E. cloacae ECL 3
  β-Riboside (hydrolysis): ++
E. cloacae; E. cloacae ECL 4
  β-Riboside (hydrolysis): ++
E. cloacae; E. cloacae NCTC 11936
  β-Riboside (hydrolysis): ++
Salmonella hadar
  β-Riboside (hydrolysis): ++
Vibrio fluvialis
  β-Riboside (hydrolysis): ++
Shigella boydii; Shigella boydii NCTC 9327
  β-Riboside (hydrolysis): ++
Shigella boydii; Shigella boydii NCTC 9732
  β-Riboside (hydrolysis): ++
Shigella boydii; Shigella boydii NCTC 9850
  β-Riboside (hydrolysis): ++
Salmonella typhi
  β-Riboside (hydrolysis): ++
Salmonella orthmarchen
  β-Riboside (hydrolysis): ++
Aeromonas caviae
  β-Riboside (hydrolysis): ++
Salmonella motevideo
  β-Riboside (hydrolysis): ++
Shigella dysenteriae; Shigella dysenteriae (type 2) NCTC 9952
  β-Riboside (hydrolysis): ++
Shigella dysenteriae; Shigella dysenteriae (type 3) NCTC 9720
  β-Riboside (hydrolysis): ++
Shigella dysenteriae; Shigella dysenteriae (type 4) NCTC 9759
  β-Riboside (hydrolysis): ++
Vibrio metschnikovii
  β-Riboside (hydrolysis): ++
